The conditions of data set [1]: in vivo, cited from earlier work.
The nature of data set [2]: Blood chemical assay (BUN, serum creatinine) to detect renal toxicity. The format is in vivo, rat. Conditions: for BUN / SERUM CREATININE: intratumoral 3 MG/KD, breast tumor-bearing rats. Here is the method:
The SA-CDDP (0.1 ml; cisplatin dose was 3 mg/kg body weight) was injected directly into the tumors through 27 G needles. In a preferred embodiment, about […] SA is used per injection. Calcium chloride (8% in water) was then injected into the same place to form cisplatin-loaded alginate beads in the tumors. The tumor size was measured to determine the anticancer effect, and the blood chemical assay (blood urea nitrogen [BUN] and serum creatinine) were performed to detect renal toxicity.
On day 40, BUN in five experimental rats and five healthy rats (control) were 18.30±1.51 mg/dl and 17.88±2.24 mg/dl, respectively. There was no statistical significance (p>0.05) between the two. Serum creatinine levels were the same as in both experimental and control rats (0.6 mg/dl).

A short description of data set [3]: In vitro slow release of cisplatin from alginate beads. Conditions: incubated in PBS at 37° C. The format is physicochemical. Here is the method:
To study in vitro slow release of an anticancer drug from a polymer, the anticancer drug cisplatin and the polymer sodium alginate were tested for slow release of the drug. Cisplatin-loaded alginate beads (SA-CDDP) were formed instantly and then incubated in phosphate-buffered saline (PBS) in tubes at 37° C. Cisplatin was completely released from the alginate beads in 15 hours, which is considerably slower than the release time (within 2.5 hours) of cisplatin powder only (control) (FIG. 1).

Data set [4] relates to multiple myeloma. Conditions: oral administration; cited from earlier work.
The conditions of data set [5]: in vivo; cited from earlier work.

These results are taken from US7008633B2 (priority 2000, dated 2006).

The structures appear in SMILES notation. Counter-ions that a name gives are not always drawn. Numbered stars: 1 amine (or outer) side, 2 acyl side, 3 side chain; on linkers, the order of the positions; unused ones are H or OH. Bridge positions count the residues as written; N and C are the ends. Square brackets hold non-standard residues; d marks the D form. Peptide text beside a SMILES is read from it. I, II: the chains in the order shown. Actinocin(9to1) = Cc1c2oc3c(C)ccc(C(=O)[*:1])c3nc-2c(C(=O)[*:2])c(N)c1=O; NMeV = CN[C@H](C(=O)O)C(C)C; Sar = CNCC(=O)O Bounds are passed on as bounds.

With `Cc1c2oc3c(C)ccc(C(=O)N[C@@H]4C(=O)N[C@H](C(C)C)C(=O)N5CCC[C@H]5C(=O)N(C)CC(=O)N(C)[C@@H](C(C)C)C(=O)O[C@@H]4C)c3nc-2c(C(=O)N[C@@H]2C(=O)N[C@H](C(C)C)C(=O)N3CCC[C@H]3C(=O)N(C)CC(=O)N(C)[C@@H](C(C)C)C(=O)O[C@@H]2C)c(N)c1=O` [Actinomycin D] (I: T[dV]P[Sar][NMeV] / II: T[dV]P[Sar][NMeV]; ester I:1-I:C, II:1-II:C; linker I:N-II:N via Actinocin(9to1)), in data set [1], the “share of the dose excreted intact into the bile” value was “Half of the dose” and the “share of the dose excreted or detected intact in the urine” value is recorded as 10%.
With `[NH2][Pt]([NH2])([Cl])[Cl]` [CDDP, cisplatin], in data set [2] (CDDP intratumorally), the nephrotoxicity entry is recorded as “a clear nephrotoxicity was observed”. Further, the BUN in data set [2] (day 2) is 56.21 mg/dL; in data set [2] (day 5), 246.42 mg/dL; in data set [2] (day 7), 152.35 mg/dL; in data set [2] (day 16), 41.75 mg/dL. Further, the “SERUM CREATININE” value in data set [2] (day 2) is given as 1.5 mg/dL; in data set [2] (day 5) it was 7.03 mg/dL; in data set [2] (day 7), 2.4 mg/dL; in data set [2] (day 16), 0.7 mg/dL. Besides, the “time to complete release of cisplatin” value in data set [3] is ≤ 2.5 h. In addition, in data set [1] (po), the oral absorption result is reported as “not absorbed orally”.
For the compound `COc1cccc2c1C(=O)c1c(O)c3c(c(O)c1C2=O)C[C@@](O)(C(C)=O)C[C@@H]3O[C@H]1C[C@H](N)[C@H](O)[C@H](C)O1` [Daunorubicin, 5,12-Naphthacenedione, (8S-cis)-8-acetyl-10-[(3-amino-2,3,6-trideoxy-a-L-lyxo-hexanopyranosyl)oxy]-7,8,9,10-tetrahydro-6,8,11-trihydroxy-10-methoxy-, hydrochloride], the oral absorption entry in data set [1] (po) is “Oral absorption is poor”.
For the compound `O=NN(CCCl)C(=O)NC1CCCCC1` [Lomustine, 1-(2-chloro-ethyl)-3-cyclohexyl-1 nitrosourea], the “radioactivity excreted in the form of degradation products” value in data set [1] (po) is given as “about half”.
Regarding `N[C@@H](Cc1ccc(N(CCCl)CCCl)cc1)C(=O)O` [Melphalan, 4-[bis(2-chloroethyl)amino]-L-phenylalanine], the “share of patients with a favorable response” value in data set [4] was “about one third to one half”.
Regarding `CO[C@@]12[C@H](COC(N)=O)C3=C(C(=O)C(C)=C(N)C3=O)N1C[C@@H]1N[C@@H]12` [Mitomycin], the “share of a dose excreted unchanged in the urine” value in data set [5] was “Approximately 10%”.
With `CC[C@]1(O)C[C@@H]2CN(CCc3c([nH]c4ccccc34)[C@@](C(=O)OC)(c3cc4c(cc3OC)N(C)[C@H]3[C@@](O)(C(=O)OC)[C@H](OC(C)=O)[C@]5(CC)C=CCN6CC[C@]43[C@@H]65)C2)C1` [Vinblastine], in data set [1], the “share of the dose excreted or detected intact in the urine” value is given as “Approximately 15%”.
